{"source": "patent US10538498B2", "about": "“1,3,4-oxadiazole sulfonamide derivative compounds as histone deacetylase 6 inhibitor, and the pharmaceutical composition comprising the same” (Chong Kun Dang Pharmaceutical Corp., priority 2015, dated 2020)", "target": "T1, human recombinant HDAC6 (Homo sapiens, UniProt Q9UBN7)", "T1 construct": "purchased Calbiochem 382180", "T1 sequence (Q9UBN7 1-1215)": "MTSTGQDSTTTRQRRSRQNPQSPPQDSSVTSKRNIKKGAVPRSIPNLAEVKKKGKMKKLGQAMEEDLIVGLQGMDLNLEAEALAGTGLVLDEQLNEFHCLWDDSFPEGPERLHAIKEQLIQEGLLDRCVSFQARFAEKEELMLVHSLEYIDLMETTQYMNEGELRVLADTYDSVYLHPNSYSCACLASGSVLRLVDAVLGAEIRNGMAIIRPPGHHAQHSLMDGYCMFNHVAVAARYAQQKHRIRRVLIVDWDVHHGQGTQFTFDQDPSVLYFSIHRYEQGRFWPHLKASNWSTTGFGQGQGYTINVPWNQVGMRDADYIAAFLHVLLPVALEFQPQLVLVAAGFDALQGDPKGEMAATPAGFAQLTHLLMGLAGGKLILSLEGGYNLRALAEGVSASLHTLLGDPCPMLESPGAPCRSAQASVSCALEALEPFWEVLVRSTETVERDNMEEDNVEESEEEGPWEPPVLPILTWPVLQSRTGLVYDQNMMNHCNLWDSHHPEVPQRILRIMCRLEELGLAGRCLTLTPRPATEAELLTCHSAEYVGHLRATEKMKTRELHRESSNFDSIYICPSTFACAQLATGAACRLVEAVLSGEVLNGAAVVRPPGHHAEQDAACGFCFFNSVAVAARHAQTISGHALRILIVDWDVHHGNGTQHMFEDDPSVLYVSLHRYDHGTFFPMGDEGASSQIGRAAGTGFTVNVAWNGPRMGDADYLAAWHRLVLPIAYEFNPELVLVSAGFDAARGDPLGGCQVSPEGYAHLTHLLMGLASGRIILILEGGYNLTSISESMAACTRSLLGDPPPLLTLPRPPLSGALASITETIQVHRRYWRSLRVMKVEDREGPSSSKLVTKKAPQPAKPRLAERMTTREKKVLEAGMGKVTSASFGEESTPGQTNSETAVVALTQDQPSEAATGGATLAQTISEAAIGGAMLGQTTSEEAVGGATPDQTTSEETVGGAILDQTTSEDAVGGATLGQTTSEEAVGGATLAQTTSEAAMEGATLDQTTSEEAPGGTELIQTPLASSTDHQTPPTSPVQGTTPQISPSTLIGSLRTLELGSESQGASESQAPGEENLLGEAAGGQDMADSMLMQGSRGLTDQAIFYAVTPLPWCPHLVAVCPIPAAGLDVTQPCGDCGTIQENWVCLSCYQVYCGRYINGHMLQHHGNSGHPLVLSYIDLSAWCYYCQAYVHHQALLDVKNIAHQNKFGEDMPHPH", "test": "HDAC6 enzyme activity inhibition assay (HDAC Fluorimetric Drug Discovery Kit)", "type": "biochemical", "conditions": "for HDAC6 selectivity (fold): HDAC1 vs HDAC6; for IC50: same protocol as the HDAC1 enzyme activity test", "how_it_was_run": "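Fluorescence (Ex 360, Em 460) after 30 min developer step; IC50 from dose-response. Reaction: 0.3 μg recombinant enzyme, 10 μM Fluor de Lys-SIRT1 substrate, 5-fold compound dilutions, 60 min at 30° C. Same protocol for both isoforms.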"}
{"smiles": "O=S(=O)(CCN1CCC[C@@H]1CO)N(Cc1ccc(-c2nnc(C(F)F)o2)cc1)c1ccccc1", "note": "[Compound 11803, (R)—N-(4-(5-(difluoromethyl)-1,3,4-oxadiazol-2-yl)benzyl)-2-(2-(hydroxymethyl)pyrrolidin-1-yl)-N-phenylethane-1-sulfonamide]", "values": [{"measurement": "HDAC6 selectivity (fold)", "result": 4587, "unit": "fold"}, {"measurement": "IC50", "result": 21.8, "unit": "nM"}]}
{"smiles": "CCN(CCS(=O)(=O)N(Cc1ccc(-c2nnc(C(F)F)o2)cc1)c1ccccc1)Cc1ccccc1", "note": "[Compound 11765, 2-(benzyl(ethyl)amino)-N-(4-(5-(difluoromethyl)-1,3,4-oxadiazol-2-yl)benzyl)-N-phenylethane-1-sulfonamide]", "values": [{"measurement": "HDAC6 selectivity (fold)", "result": 526, "unit": "fold"}, {"measurement": "IC50", "result": 190, "unit": "nM"}]}
{"smiles": "CCS(=O)(=O)N(Cc1ccc(-c2nnc(C(F)F)o2)cn1)c1ccccc1", "note": "[Compound 11412, N-((5-(5-(difluoromethyl)-1,3,4-oxadiazol-2-yl)pyridin-2-yl)methyl)-N-phenylethanesulfonamide]", "values": [{"measurement": "HDAC6 selectivity (fold)", "result": 8333, "unit": "fold"}, {"measurement": "IC50", "result": 12, "unit": "nM"}]}
{"smiles": "COc1ccc(N(Cc2ccc(-c3nnc(C(F)F)o3)cc2F)S(C)(=O)=O)cc1", "note": "[Compound 11193, N-(4-(5-(difluoromethyl)-1,3,4-oxadiazol-2-yl)-2-fluorobenzyl)-N-(4-methoxyphenyl)methanesulfonamide]", "values": [{"measurement": "HDAC6 selectivity (fold)", "result": 3704, "unit": "fold"}, {"measurement": "IC50", "result": 27, "unit": "nM"}]}
{"smiles": "O=S(=O)(C1CCOC1)N(Cc1ccc(-c2nnc(C(F)F)o2)cn1)c1ccccc1", "note": "(stereo not shown) [Compound 11428, N-((5-(5-(difluoromethyl)-1,3,4-oxadiazol-2-yl)pyridin-2-yl)methyl)-N-phenyltetrahydrofuran-3-sulfonamide]", "values": [{"measurement": "HDAC6 selectivity (fold)", "result": 6667, "unit": "fold"}, {"measurement": "IC50", "result": 15, "unit": "nM"}]}
{"smiles": "O=S(=O)(CCn1cncn1)N(Cc1ccc(-c2nnc(C(F)F)o2)cc1)c1ccccc1", "note": "[Compound 11809, N-(4-(5-(difluoromethyl)-1,3,4-oxadiazol-2-yl)benzyl)-N-phenyl-2-(1H-1,2,4-triazol-1-yl)ethane-1-sulfonamide]", "values": [{"measurement": "HDAC6 selectivity (fold)", "result": 3222, "unit": "fold"}, {"measurement": "IC50", "result": 30.1, "unit": "nM"}]}
{"smiles": "CS(=O)(=O)N(Cc1ccc(-c2nnc(C(F)F)o2)cn1)c1ccc2c(c1)OCO2", "note": "[Compound 11345, N-(benzo[d][1,3]dioxol-5-yl)-N-((5-(5-(difluoromethyl)-1,3,4-oxadiazol-2-yl)pyridin-2-yl)methyl)methanesulfonamide]", "values": [{"measurement": "HDAC6 selectivity (fold)", "result": 3571, "unit": "fold"}, {"measurement": "IC50", "result": 28, "unit": "nM"}]}
{"smiles": "C[C@@H]1CN(CCCS(=O)(=O)N(Cc2ccc(-c3nnc(C(F)F)o3)cc2)c2ccccc2)C[C@H](C)N1C", "note": "[Compound 11665, N-(4-(5-(difluoromethyl)-1,3,4-oxadiazol-2-yl)benzyl)-N-phenyl-3-((3R,5S)-3,4,5-trimethylpiperazin-1-yl)propane-1-sulfonamide]", "values": [{"measurement": "HDAC6 selectivity (fold)", "result": 5263, "unit": "fold"}, {"measurement": "IC50", "result": 19, "unit": "nM"}]}
{"smiles": "CS(=O)(=O)N(Cc1ccc(-c2nnc(C(F)(F)F)o2)cc1F)c1ccccc1F", "note": "[Compound 11273, N-(2-fluoro-4-(5-(trifluoromethyl)-1,3,4-oxadiazol-2-yl)benzyl)-N-(2-fluorophenyl)methanesulfonamide]", "values": [{"measurement": "HDAC6 selectivity (fold)", "result": 1266, "unit": "fold"}, {"measurement": "IC50", "result": 79, "unit": "nM"}]}
{"smiles": "CS(=O)(=O)N1CC(N2CCC(S(=O)(=O)N(Cc3ccc(-c4nnc(C(F)F)o4)cc3F)c3ccc(F)c(Cl)c3)CC2)C1", "note": "[Compound 11448, N-(3-chloro-4-fluorophenyl)-N-(4-(5-(difluoromethyl)-1,3,4-oxadiazol-2-yl)-2-fluorobenzyl)-1-(1-(methylsulfonyl)azetidin-3-yl)piperidine-4-sulfonamide]", "values": [{"measurement": "HDAC6 selectivity (fold)", "result": 4762, "unit": "fold"}, {"measurement": "IC50", "result": 21, "unit": "nM"}]}
{"smiles": "Cc1ccc(N(Cc2ccc(-c3nnc(C(F)F)o3)cc2F)S(C)(=O)=O)cc1", "note": "[Compound 11283, N-(4-(5-(difluoromethyl)-1,3,4-oxadiazol-2-yl)-2-fluorobenzyl)-N-(p-tolyl)methanesulfonamide]", "values": [{"measurement": "HDAC6 selectivity (fold)", "result": 1852, "unit": "fold"}, {"measurement": "IC50", "result": 54, "unit": "nM"}]}
{"smiles": "CC(=O)N1Cc2ccc(N(Cc3ccc(-c4nnc(C(F)F)o4)cc3)S(C)(=O)=O)cc2C1", "note": "[Compound 11732, N-(2-acetylisoindolin-5-yl)-N-(4-(5-(difluoromethyl)-1,3,4-oxadiazol-2-yl)benzyl)methanesulfonamide]", "values": [{"measurement": "HDAC6 selectivity (fold)", "result": 184, "unit": "fold"}, {"measurement": "IC50", "result": 542, "unit": "nM"}]}
{"smiles": "CCS(=O)(=O)N(Cc1ccc(-c2nnc(C(F)(F)F)o2)cc1F)c1ccccc1", "note": "[Compound 11153, N-(2-fluoro-4-(5-(trifluoromethyl)-1,3,4-oxadiazol-2-yl)benzyl)-N-phenylethanesulfonamide]", "values": [{"measurement": "HDAC6 selectivity (fold)", "result": 793, "unit": "fold"}, {"measurement": "IC50", "result": 126, "unit": "nM"}]}
{"smiles": "O=S(=O)(CCN1CC[C@H](O)C1)N(Cc1ccc(-c2nnc(C(F)F)o2)cc1)c1ccccc1", "note": "[Compound 11800, (S)—N-(4-(5-(difluoromethyl)-1,3,4-oxadiazol-2-yl)benzyl)-2-(3-hydroxypyrrolidin-1-yl)-N-phenylethane-1-sulfonamide]", "values": [{"measurement": "HDAC6 selectivity (fold)", "result": 2252, "unit": "fold"}, {"measurement": "IC50", "result": 44.4, "unit": "nM"}]}
{"smiles": "CS(=O)(=O)N(Cc1ccc(-c2nnc(C(F)F)o2)cc1)CC12CC3CC(CC(C3)C1)C2", "note": "[Compound 11668, N-((adamantan-1-yl)methyl)-N-(4-(5-(difluoromethyl)-1,3,4-oxadiazol-2-yl)benzyl)methanesulfonamide]", "values": [{"measurement": "HDAC6 selectivity (fold)", "result": 724, "unit": "fold"}, {"measurement": "IC50", "result": 138, "unit": "nM"}]}
{"smiles": "CS(=O)(=O)N1CCC(S(=O)(=O)N(Cc2ccc(-c3nnc(C(F)F)o3)cn2)c2ccccc2)CC1", "note": "[Compound 11426, N-((5-(5-(difluoromethyl)-1,3,4-oxadiazol-2-yl)pyridin-2-yl)methyl)-1-(methylsulfonyl)-N-phenylpiperidine-4-sulfonamide]", "values": [{"measurement": "HDAC6 selectivity (fold)", "result": 7692, "unit": "fold"}, {"measurement": "IC50", "result": 13, "unit": "nM"}]}
{"smiles": "CS(=O)(=O)N(Cc1ccc(-c2nnc(C(F)F)o2)cc1F)[C@@H]1CCc2ccccc21", "note": "[Compound 11748, (R)—N-(4-(5-(difluoromethyl)-1,3,4-oxadiazol-2-yl)-2-fluorobenzyl)-N-(2,3-dihydro-1H-inden-1-yl)methanesulfonamide]", "values": [{"measurement": "HDAC6 selectivity (fold)", "result": 230, "unit": "fold"}, {"measurement": "IC50", "result": 433, "unit": "nM"}]}
{"smiles": "CN1CCN(CCS(=O)(=O)N(Cc2ccc(-c3nnc(C(F)F)o3)cc2F)c2ccc(F)c(Cl)c2)CC1", "note": "[Compound 11552, N-(3-chloro-4-fluorophenyl)-N-(4-(5-(difluoromethyl)-1,3,4-oxadiazol-2-yl)-2-fluorobenzyl)-2-(4-methylpiperazin-1-yl)ethane-1-sulfonamide]", "values": [{"measurement": "HDAC6 selectivity (fold)", "result": 7143, "unit": "fold"}, {"measurement": "IC50", "result": 14, "unit": "nM"}]}
{"smiles": "CCS(=O)(=O)N(Cc1ccc(-c2nnc(C(F)F)o2)cn1)c1ccc(CN2CCN(C(C)=O)CC2)cc1", "note": "[Compound 11386, N-(4-((4-acetylpiperazin-1-yl)methyl)phenyl)-N-((5-(5-(difluoromethyl)-1,3,4-oxadiazol-2-yl)pyridin-2-yl)methyl)ethanesulfonamide]", "values": [{"measurement": "HDAC6 selectivity (fold)", "result": 1316, "unit": "fold"}, {"measurement": "IC50", "result": 76, "unit": "nM"}]}
{"smiles": "O=C(CN1CCN(CCS(=O)(=O)N(Cc2ccc(-c3nnc(C(F)F)o3)cc2)c2ccccc2)CC1)N1CCOCC1", "note": "[Compound 11751, N-(4-(5-(difluoromethyl)-1,3,4-oxadiazol-2-yl)benzyl)-2-(4-(2-morpholino-2-oxoethyl)piperazin-1-yl)-N-phenylethane-1-sulfonamide]", "values": [{"measurement": "HDAC6 selectivity (fold)", "result": 1170, "unit": "fold"}, {"measurement": "IC50", "result": 85.4, "unit": "nM"}]}
{"smiles": "CCS(=O)(=O)N(Cc1ccc(-c2nnc(C(F)F)o2)cc1F)c1cccc(CN2CCS(=O)(=O)CC2)c1", "note": "[Compound 11392, N-(4-(5-(difluoromethyl)-1,3,4-oxadiazol-2-yl)-2-fluorobenzyl)-N-(3-((1,1-dioxidothiomorpholino)methyl)phenyl)ethanesulfonamide]", "values": [{"measurement": "HDAC6 selectivity (fold)", "result": 1000, "unit": "fold"}, {"measurement": "IC50", "result": 100, "unit": "nM"}]}
{"smiles": "O=S(=O)(C1CCN(C2CC(F)C2)CC1)N(Cc1ccc(-c2nnc(C(F)F)o2)cc1)c1cccc(Cl)c1", "note": "(stereo not shown) [Compound 11840, N-(3-chlorophenyl)-N-(4-(5-(difluoromethyl)-1,3,4-oxadiazol-2-yl)benzyl)-1-(3-fluorocyclobutyl)piperidine-4-sulfonamide]", "values": [{"measurement": "HDAC6 selectivity (fold)", "result": 520, "unit": "fold"}, {"measurement": "IC50", "result": 192, "unit": "nM"}]}
{"smiles": "CCS(=O)(=O)N(Cc1ccc(-c2nnc(C(F)F)o2)cc1F)c1cccc2c1cnn2C", "note": "[Compound 11520, N-(4-(5-(difluoromethyl)-1,3,4-oxadiazol-2-yl)-2-fluorobenzyl)-N-(1-methyl-1H-indazol-4-yl)ethanesulfonamide]", "values": [{"measurement": "HDAC6 selectivity (fold)", "result": 3125, "unit": "fold"}, {"measurement": "IC50", "result": 32, "unit": "nM"}]}
